Measurements from ChEMBL document CHEMBL5532682, “Recent advances of tryptanthrin and its derivatives as potential anticancer agents” (RSC Med Chem, 2024).
Values belong to the compound of their own block, whether it stands above or below them.

Tests used:
[1] = tested on: HeLa; assay: Antiproliferative activity against human HeLa cells incubated for 48 hrs; assay type: functional, cell-based
[2] = tested on: K562; assay: Antiproliferative activity against human K562 cells incubated for 48 hrs; assay type: functional, cell-based; settings: K562, 48 h
[3] = tested on: CT26; assay: Antiproliferative activity against mouse CT26 cells incubated for 48 hrs; assay type: functional, cell-based; settings: CT26, 48 h
[4] = tested on: K562; assay: Antiproliferative activity against human K562 cells; assay type: functional, cell-based
[5] = tested on: HCT-116; assay: Antiproliferative activity against human HCT-116 cells measured after 48 hrs by MTT assay; assay type: functional, cell-based; settings: HCT-116, 48 h
[6] = tested on: HepG2; assay: Antiproliferative activity against human HepG2 cells assessed as inhibition of cell growth; assay type: functional, cell-based
[7] = tested on: T-24; assay: Antiproliferative activity against human T24 cells assessed as inhibition of cell growth; assay type: functional, cell-based
[8] = tested on: NCI/ADR-RES; assay: Antiproliferative activity against human MCF7ADR cells; assay type: functional, cell-based
[9] = Antiproliferative activity against human HL7702 cells assessed as inhibition of cell growth; assay type: toxicity, cell-based; settings: HL7702 (L02) cells
[10] = Antiproliferative activity against mouse MC3T3-E1 cells; assay type: toxicity, cell-based
[11] = tested on: A549/CDDP; assay: Antiproliferative activity against human A549/DDP cells assessed as inhibition of cell viability; assay type: functional, cell-based
[12] = tested on: WEHI3B; assay: Antiproliferative activity against mouse WEHI3B cells assessed as inhibition of cell growth measured after 48 hrs; assay type: functional, cell-based
[13] = tested on: T-24; assay: Antiproliferative activity against human T24 cells measured after 48 hrs by MTT assay; assay type: functional, cell-based; settings: T-24, 48 h
[14] = tested on: A549; assay: Antiproliferative activity against human A549 cells; assay type: functional, cell-based
[15] = tested on: K562; assay: Antiproliferative activity against human K562 cells incubated by 48 hrs by MTT assay; assay type: functional, cell-based; settings: K562, 48 h
[16] = tested on: MDA-MB-231; assay: Antiproliferative activity against human MDA-MB-231 cells measured after 48 hrs by MTT assay; assay type: functional, cell-based; settings: MDA-MB-231, 48 h
[17] = tested on: A549; assay: Antiproliferative activity against human A549 cells measured after 48 hrs by MTT assay; assay type: functional, cell-based; settings: A549, 48 h
[18] = tested on: A549; assay: Antiproliferative activity against human A549 cells assessed as cell growth inhibition; assay type: functional, cell-based
[19] = tested on: A549; assay: Antiproliferative activity against human A549 cells assessed as inhibition of cell viability; assay type: functional, cell-based
[20] = tested on: MGC-803; assay: Antiproliferative activity against human MGC-803 cells measured after 48 hrs by MTT assay; assay type: functional, cell-based; settings: MGC-803, 48 h
[21] = tested on: HeLa; assay: Antiproliferative activity against human HeLa cells assessed as cell growth inhibition; assay type: functional, cell-based
[22] = Antiproliferative activity against human HL7702 cells assessed as inhibition of cell viability; assay type: toxicity, cell-based; settings: HL7702 (L02) cells
[23] = tested on: PC-3; assay: Antiproliferative activity against human PC-3 cells incubated by 48 hrs by MTT assay; assay type: functional, cell-based; settings: PC-3, 48 h
[24] = tested on: Bel-7402; assay: Antiproliferative activity against human Bel-7402 cells measured after 48 hrs by MTT assay; assay type: functional, cell-based; settings: Bel-7402, 48 h
[25] = Antiproliferative activity against human HL7702 cells measured after 48 hrs by MTT assay; assay type: toxicity, cell-based; settings: HL7702 (L02) cells
[26] = tested on: HepG2; assay: Antiproliferative activity against human HepG2 cells incubated by 48 hrs by MTT assay; assay type: functional, cell-based; settings: HepG2, 48 h
[27] = tested on: A549; assay: Antiproliferative activity against human A549 cells incubated by 48 hrs by MTT assay; assay type: functional, cell-based; settings: A549, 48 h
[28] = tested on: MCF7; assay: Antiproliferative activity against human MCF7 cells; assay type: functional, cell-based
[29] = tested on: SK-OV-3; assay: Antiproliferative activity against human SK-OV-3 cells assessed as inhibition of cell growth; assay type: functional, cell-based
[30] = tested on: HepG2; assay: Antiproliferative activity against human HepG2 cells measured after 48 hrs by MTT assay; assay type: functional, cell-based; settings: HepG2, 48 h

IC50 [1]: > 50 µM
IC50 [2]: 4.8 µM
IC50 [3]: > 50 µM
IC50 [4]: 4.8 µM
SMILES: CC(C)NC(=O)[C@@H]1[C@@]2(c3ccccc3)[C@H]3CCCN3[C@@]3(c4ccccc4-n4c3nc3ccccc3c4=O)[C@@]12c1ccccc1

IC50 [5]: 17.5 µM
IC50 [6]: 90.1 µM
IC50 [11]: > 100 µM
IC50 [14]: 74.7 µM
IC50 [15]: 12 µM
IC50 [16]: > 100 µM
IC50 [17]: 74.7 µM
IC50 [18]: > 150 µM
IC50 [19]: > 100 µM
IC50 [20]: 70.2 µM
IC50 [21]: > 150 µM
IC50 [23]: 14.5 µM
IC50 [24]: 41.3 µM
IC50 [26]: 9.51 µM
IC50 [27]: 8.25 µM
IC50 [28]: 94.2 µM
IC50 [29]: 85.1 µM
IC50 [30]: 90.1 µM
SMILES: O=C1c2ccccc2-n2c1nc1ccccc1c2=O [TRYPTANTHRIN]
IC50 [7]: > 150 µM
IC50 [8]: 96.4 µM
IC50 [9]: 90.1 µM
IC50 [10]: > 100 µM
IC50 [12]: 1.5 µM
IC50 [13]: > 150 µM
IC50 [22]: > 100 µM
IC50 at 48 h [25]: 90.1 µM
